Active and inactive are the calls of the source. The calls are words filed in the database; no cut-off is given here.
How the values were obtained:
[1] = test system: MGC-803; test: Induction of apoptosis in human MGC-803 cells assessed as late apoptotic cells at 1 uM measured after 48 hrs by Annexin V-EGFP and PI staining based flow cytometry analysis (reference value: 3.16%); type: functional
[2] = test system: HCT-116; test: Antiproliferative activity against human HCT-116 cells assessed as inhibition of cell growth by MTT assay
[3] = test system: HGC-27; test: Antiproliferative activity against human HGC-27 cells assessed as inhibition of cell growth by MTT assay
[4] = target: T1, Protein deacetylase HDAC6 (Mus musculus) (UniProt Q9Z2V5); test: In vivo inhibition of HDAC6 in C57BL/6 mouse xenografted with MGC-803 cells assessed as effect on acetylated H3 level at 25 to 50 mg/kg, ip by Western blot analysis; type: functional, organism-based; conditions: dose 25-50 mg/kg
T1 sequence (whole entry): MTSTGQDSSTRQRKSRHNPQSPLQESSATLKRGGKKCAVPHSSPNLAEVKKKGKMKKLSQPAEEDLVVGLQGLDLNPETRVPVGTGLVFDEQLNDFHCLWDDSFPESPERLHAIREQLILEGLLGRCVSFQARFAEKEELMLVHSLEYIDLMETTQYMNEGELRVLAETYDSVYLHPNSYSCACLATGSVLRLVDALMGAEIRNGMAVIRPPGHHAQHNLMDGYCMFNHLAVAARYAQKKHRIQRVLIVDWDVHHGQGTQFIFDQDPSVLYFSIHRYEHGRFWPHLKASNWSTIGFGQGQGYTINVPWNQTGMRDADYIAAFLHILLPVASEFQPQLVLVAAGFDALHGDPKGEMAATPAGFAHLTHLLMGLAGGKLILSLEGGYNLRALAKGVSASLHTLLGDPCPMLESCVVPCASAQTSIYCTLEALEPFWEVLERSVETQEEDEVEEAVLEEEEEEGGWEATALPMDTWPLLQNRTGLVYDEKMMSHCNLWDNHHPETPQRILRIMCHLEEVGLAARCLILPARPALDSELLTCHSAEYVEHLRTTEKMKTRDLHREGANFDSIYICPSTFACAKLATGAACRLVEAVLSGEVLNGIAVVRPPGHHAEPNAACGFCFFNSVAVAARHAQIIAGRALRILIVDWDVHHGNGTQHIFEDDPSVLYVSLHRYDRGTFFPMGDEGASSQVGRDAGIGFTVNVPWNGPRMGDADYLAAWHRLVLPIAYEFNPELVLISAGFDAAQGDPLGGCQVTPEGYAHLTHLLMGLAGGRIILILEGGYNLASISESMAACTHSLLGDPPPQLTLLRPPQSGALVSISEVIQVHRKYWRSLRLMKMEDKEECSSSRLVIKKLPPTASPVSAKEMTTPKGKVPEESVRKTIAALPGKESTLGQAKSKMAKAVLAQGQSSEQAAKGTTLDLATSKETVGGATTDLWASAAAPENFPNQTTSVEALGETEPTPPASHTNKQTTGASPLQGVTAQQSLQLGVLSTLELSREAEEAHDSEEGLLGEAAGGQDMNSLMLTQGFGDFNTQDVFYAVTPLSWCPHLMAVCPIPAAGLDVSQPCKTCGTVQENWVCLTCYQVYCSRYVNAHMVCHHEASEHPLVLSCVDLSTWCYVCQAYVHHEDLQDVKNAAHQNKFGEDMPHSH

[5] = Half life in male Sprague-Dawley rat at 7 mg/kg,po measured upto 8 hrs by UPLC-MS/MS analysis; type: ADME, organism-based; conditions: in vivo
[6] = test system: H9c2; test: Cardioprotective activity in H2O2 induced myocardial injury in rat H9c2 cells assessed as effect on beclin1 level at upto 8 uM by q-PCR analysis; type: functional, cell-based
[7] = Observed apparent volume of distribution in male Sprague-Dawley rat at 7 mg/kg,po measured upto 8 hrs by UPLC-MS/MS analysis; type: ADME, organism-based; conditions: in vivo
[8] = test system: Mus musculus; test: Cardioprotective activity against myocardial ischemia/reperfusion induced C57BL/6J mouse model assessed as reduction in ST-segment elevation at 2.5 to 10 mg/kg; type: functional, organism-based; conditions: dose 2.5-10 mg/kg
[9] = test system: H9c2; test: Cardioprotective activity in H2O2 induced myocardial injury in rat H9c2 cells assessed as effect on P62 level at upto 8 uM by q-PCR analysis; type: functional, cell-based
[10] = test system: MGC-803; test: Antitumor activity against human MGC-803 cells xenografted in […] mouse model assessed as suppression of tumor volume at 25 to 50 mg/kg, ip measured upto 21 days with continuous administration for 5 days followed by two days break; type: functional, organism-based; conditions: dose 25-50 mg/kg, time <= 21.0 day
[11] = test system: MGC-803; test: Induction of apoptosis in human MGC-803 cells assessed as early apoptotic cells at 1 uM measured after 48 hrs by Annexin V-EGFP and PI staining based flow cytometry analysis (reference value: 0.66%); type: functional
[12] = test system: H9c2; test: Cardioprotective activity against H2O2 induced myocardial damage in rat H9c2 cells harbouring Ad.HDAC6 assessed as decrease in LDH leakage rate at 8 uM by absorbance based analysis; type: functional, cell-based
[13] = test system: H9c2; test: Cardioprotective activity in H2O2 induced myocardial injury in rat H9c2 cells assessed as effect on HO-1 level at upto 8 uM by q-PCR analysis; type: functional, cell-based
[14] = test system: BGC-823; test: Antiproliferative activity against human BGC-823 cells assessed as inhibition of cell growth by MTT assay
[15] = test system: Mus musculus; test: Cardioprotective activity against myocardial ischemia/reperfusion induced C57BL/6J mouse model assessed as effect on infarct size of mouse heart at 2.5 to 10 mg/kg by TTC staining based analysis; type: functional, organism-based; conditions: dose 2.5-10 mg/kg
[16] = test system: MGC-803; test: Induction of apoptosis in human MGC-803 cells assessed as necrotic cells at 1 uM measured after 48 hrs by Annexin V-EGFP and PI staining based flow cytometry analysis (reference value: 3.90%); type: functional
[17] = test system: H9c2; test: Cardioprotective activity in H2O2 induced myocardial injury in rat H9c2 cells assessed as cell viability by MTT assay; type: functional, cell-based; conditions: dose <= 8.0 µM
[18] = Toxicity in C57BL/6 mouse assessed as effect on body weight at 25 to 50 mg/kg, ip measured after 21 days; type: organism-based; conditions: in vivo, 504 h, dose 25-50 mg/kg, time 21 day
[19] = test system: H9c2; test: Cardioprotective activity in H2O2 induced myocardial injury in rat H9c2 cells assessed as appearance of defined nuclear boundaries at 2 to 8 uM; type: functional, cell-based; conditions: dose 2-8 µM
[20] = Observed clearance in male Sprague-Dawley rat at 7 mg/kg,po measured upto 8 hrs by UPLC-MS/MS analysis; type: ADME, organism-based; conditions: in vivo
[21] = AUC (0 to infinity) in male Sprague-Dawley rat at 7 mg/kg,iv measured upto 8 hrs by UPLC-MS/MS analysis; type: ADME, organism-based; conditions: in vivo
[22] = AUC (0 to infinity) in male Sprague-Dawley rat at 7 mg/kg,po measured upto 8 hrs by UPLC-MS/MS analysis; type: ADME, organism-based; conditions: in vivo
[23] = target: Histone deacetylase 1 (Homo sapiens, UniProt Q13547); test: Inhibition of HDAC1 (unknown origin)
Chain of Histone deacetylase 1 (Q13547 whole entry): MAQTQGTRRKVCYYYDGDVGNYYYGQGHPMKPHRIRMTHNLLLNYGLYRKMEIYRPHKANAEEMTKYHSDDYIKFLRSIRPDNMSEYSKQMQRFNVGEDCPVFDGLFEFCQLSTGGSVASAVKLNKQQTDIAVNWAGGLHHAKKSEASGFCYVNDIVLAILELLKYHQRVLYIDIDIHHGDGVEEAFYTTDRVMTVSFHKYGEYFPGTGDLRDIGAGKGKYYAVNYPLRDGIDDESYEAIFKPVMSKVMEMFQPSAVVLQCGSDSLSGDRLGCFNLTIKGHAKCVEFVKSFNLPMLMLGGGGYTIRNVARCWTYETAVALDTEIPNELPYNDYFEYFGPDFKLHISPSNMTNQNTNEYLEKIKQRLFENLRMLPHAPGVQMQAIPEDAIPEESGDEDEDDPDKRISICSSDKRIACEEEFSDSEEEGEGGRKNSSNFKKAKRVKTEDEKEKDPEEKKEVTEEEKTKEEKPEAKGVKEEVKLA

[24] = test system: MGC-803; test: Antitumor activity against human MGC-803 cells xenografted in […] mouse model assessed as suppression of tumor mass at 25 to 50 mg/kg, ip measured upto 21 days with continuous administration for 5 days followed by two days break; type: functional, organism-based; conditions: dose 25-50 mg/kg, time <= 21.0 day

O=C(NO)c1ccc(CNC(=O)c2cc(-c3ccc(F)cc3)cn3ccnc23)cc1
Activity [1]: 17.6%
IC50 [2]: > 10000 nM
IC50 [3]: 2800 nM
inhibition [4]: Active
half-life [5]: 3.58 h
Activity [6]: inactive
Vz [7]: 492.21671 L/kg
Activity [8]: Active
Activity [9]: inactive
Activity [10]: Active
Activity [11]: 0.48%
Activity [12]: Active
Activity [13]: inactive
IC50 [14]: 2250 nM
Activity [15]: inactive
Activity [16]: 4.7%
Activity [17]: Active
Activity [18]: Non-Toxic
Activity [19]: Active
CL/F [20]: 1590 mL/min/kg
AUC(0-inf) [21]: 868 ng·h/mL
AUC(0-inf) [22]: 105 ng·h/mL
IC50 [23]: 3.1 nM
Activity [24]: Active
